Values of other authors in publication PMC11876601 (Molecular Systems Biology, 2025).

What was measured:
RPS6KA1 = system: RPS6KA1; set-up: method as in Reinecke et al. (2023); settings: RPS6KA1, 5 cell line mix lysate, Kinobeads ε, ref Reinecke et al. (2023), cited from earlier work
GAK = settings: 5 cell line mix lysate, Kinobeads ε, ref Reinecke et al. (2023), cited from earlier work
LCK = biological target: LCK; set-up: method as in Reinecke et al. (2023); settings: 5 cell line mix lysate, Kinobeads ε, ref Reinecke et al. (2023), cited from earlier work
IRAK3 = settings: IRAK3, 5 cell line mix lysate, Kinobeads ε, ref Reinecke et al. (2023), cited from earlier work
TRAF2 = system: TRAF2; set-up: method as in Reinecke et al. (2023); settings: TRAF2, 5 cell line mix lysate, Kinobeads ε, ref Reinecke et al. (2023), cited from earlier work
TANK = settings: 5 cell line mix lysate, Kinobeads ε, ref Reinecke et al. (2023), cited from earlier work
MAP4K3 = system: MAP4K3; set-up: method as in Reinecke et al. (2023); settings: MAP4K3, 5 cell line mix lysate, Kinobeads ε, ref Reinecke et al. (2023), cited from earlier work
BCR = settings: 5 cell line mix lysate, Kinobeads ε, ref Reinecke et al. (2023), cited from earlier work
PTK6 = system: PTK6; set-up: method as in Reinecke et al. (2023); settings: PTK6, 5 cell line mix lysate, Kinobeads ε, ref Reinecke et al. (2023), cited from earlier work
IGF1R = biological target: IGF1R; set-up: method as in Reinecke et al. (2023); settings: 5 cell line mix lysate, Kinobeads ε, ref Reinecke et al. (2023), cited from earlier work
AZI2 = settings: AZI2, 5 cell line mix lysate, Kinobeads ε, ref Reinecke et al. (2023), cited from earlier work
PRKD1 = system: PRKD1; set-up: method as in Reinecke et al. (2023); settings: PRKD1, 5 cell line mix lysate, Kinobeads ε, ref Reinecke et al. (2023), cited from earlier work
YES1 = system: YES1; set-up: method as in Reinecke et al. (2023); settings: YES1, 5 cell line mix lysate, Kinobeads ε, ref Reinecke et al. (2023), cited from earlier work
PLK1 = system: PLK1; set-up: method as in Reinecke et al. (2023); settings: PLK1, 5 cell line mix lysate, Kinobeads ε, ref Reinecke et al. (2023), cited from earlier work
RPS6KA6 = system: RPS6KA6; set-up: method as in Reinecke et al. (2023); settings: RPS6KA6, 5 cell line mix lysate, Kinobeads ε, ref Reinecke et al. (2023), cited from earlier work
MAPK9 = system: MAPK9; set-up: method as in Klaeger et al. (2017); settings: lysate 4 cell line mix (Colo205, K-562, MV-4-11, and SK-N-BE(2)), Kinobeads y, ref Klaeger et al. (2017); cited from earlier work
STK4 = system: STK4; set-up: method as in Klaeger et al. (2017); settings: STK4, 4 cell line mix lysate, Kinobeads y, ref Klaeger et al. (2017); cited from earlier work

In the case of COc1cc(N2CCC(N3CCN(C)CC3)CC2)ccc1Nc1ncc(Cl)c(Nc2ccccc2P(C)(C)=O)n1 [Brigatinib], the EC50 (RPS6KA1) is listed as 376 nM, the pKDapp (RPS6KA1) is listed as 6.55 and the Kd (RPS6KA1; read-out: KDapp) is listed as 283 nM. The Kd (GAK; read-out: KDapp) was 5.8 nM, the EC50 (GAK) was 10.3 nM and the pKDapp (GAK) was 8.24. For the same compound, the Kd (LCK; read-out: KDapp) was 963 nM, the EC50 (LCK) was 2190 nM and the pKDapp (LCK) was 6.02. For the same compound, the EC50 (IRAK3) was 1150 nM, the pKDapp (IRAK3) was 6.31 and the Kd (IRAK3; read-out: KDapp) was 494 nM. For the same compound, the EC50 (TRAF2) was 3940 nM, the pKDapp (TRAF2) was 5.48 and the Kd (TRAF2; read-out: KDapp) was 3280 nM. The Kd (TANK; read-out: KDapp) was 684 nM, the EC50 (TANK) was 1070 nM and the pKDapp (TANK) was 6.17. For the same compound, the EC50 (MAP4K3) was 1160 nM, the pKDapp (MAP4K3) was 6.12 and the Kd (MAP4K3; read-out: KDapp) was 759 nM. The Kd (BCR; read-out: KDapp) was 504 nM, the EC50 (BCR) was 1050 nM and the pKDapp (BCR) was 6.30. The EC50 (PTK6) was 85.9 nM, the pKDapp (PTK6) was 7.38 and the Kd (PTK6; read-out: KDapp) was 41.5 nM. For the same compound, the Kd (IGF1R; read-out: KDapp) was 1320 nM, the EC50 (IGF1R) was 2000 nM and the pKDapp (IGF1R) was 5.88. For the same compound, the EC50 (AZI2) was 1120 nM, the pKDapp (AZI2) was 6.10 and the Kd (AZI2; read-out: KDapp) was 789 nM. The EC50 (PRKD1) was 45.9 nM, the pKDapp (PRKD1) was 7.50 and the Kd (PRKD1; read-out: KDapp) was 31.4 nM. For the same compound, the EC50 (YES1) was 821 nM, the pKDapp (YES1) was 6.47 and the Kd (YES1; read-out: KDapp) was 339 nM. For the same compound, the EC50 (PLK1) was 1100 nM, the pKDapp (PLK1) was 5.99 and the Kd (PLK1; read-out: KDapp) was 1010 nM. The EC50 (RPS6KA6) was 93.6 nM, the pKDapp (RPS6KA6) was 7.40 and the Kd (RPS6KA6; read-out: KDapp) was 39.5 nM.

For C[C@]12O[C@H](C[C@]1(O)CO)n1c3ccccc3c3c4c(c5c6ccccc6n2c5c31)CNC4=O [Lestaurtinib], the EC50 (MAPK9) is given as 2470 nM and the EC50 (STK4) is given as 59.4 nM.
